In ChEMBL document CHEMBL1156891, “Pyrrolidine amides of pyrazolodihydropyrimidines as potent and selective KV1.5 blockers” (Bioorg Med Chem Lett, 2010):

Tests used:
[1] = biological target: Potassium voltage-gated channel subfamily A member 5 (Homo sapiens, UniProt P22460); assay: Inhibition of human Kv1.5 channel expressed in mouse L929 cells; format: cell-based; settings: for inhibition: concentration not given here
[2] = Volume of distribution at steady state in dog at 10 µmol/kg, intra-arterial infusion; settings: in vivo, read-out: Vdss
[3] = Fraction unbound in rabbit plasma at 10 mg/kg, iv; format: ADME, organism-based, Oryctolagus cuniculus; set-up: dose 10 mg/kg, route intravenous
[4] = Oral bioavailability in rat at 20 µmol/kg, po; settings: in vivo
[5] = Terminal half life in rat at 10 µmol/kg, intra-arterial infusion; settings: in vivo, read-out: beta t1/2 (converted)
[6] = Clearance in dog at 10 µmol/kg, intra-arterial infusion; settings: in vivo
Oryctolagus cuniculus [7] = assay: Prolongation of atrial effective refractory period in rabbit at 1 mg/kg, iv relative to vehicle control; format: functional, Cardiac atrium
Oryctolagus cuniculus [8] = assay: Prolongation of atrial effective refractory period in rabbit at 3 mg/kg, iv relative to vehicle control; format: functional, Cardiac atrium
Oryctolagus cuniculus [9] = assay: Prolongation of atrial effective refractory period in rabbit at 10 mg/kg, iv relative to vehicle control; format: functional, Cardiac atrium
Oryctolagus cuniculus [10] = assay: Prolongation of atrial effective refractory period in rabbit at 0.3 mg/kg, iv relative to vehicle control; format: functional, Cardiac atrium
[11] = Volume of distribution at steady state in rat at 10 µmol/kg, intra-arterial infusion; settings: in vivo, read-out: Vdss
Oryctolagus cuniculus [12] = assay: Plasma concentration in rabbit at 10 mg/kg, iv; format: ADME, organism-based; set-up: dose 10 mg/kg, route intravenous; settings: in vivo
[13] = Clearance in rat at 10 µmol/kg, intra-arterial infusion; settings: in vivo
[14] = Terminal half life in dog at 10 µmol/kg, intra-arterial infusion; settings: in vivo, read-out: beta t1/2 (converted)
[15] = Oral bioavailability in dog at 20 µmol/kg, po; settings: in vivo

Potassium voltage-gated channel subfamily A member 5, sequence (P22460 whole entry, the tested form may be a part): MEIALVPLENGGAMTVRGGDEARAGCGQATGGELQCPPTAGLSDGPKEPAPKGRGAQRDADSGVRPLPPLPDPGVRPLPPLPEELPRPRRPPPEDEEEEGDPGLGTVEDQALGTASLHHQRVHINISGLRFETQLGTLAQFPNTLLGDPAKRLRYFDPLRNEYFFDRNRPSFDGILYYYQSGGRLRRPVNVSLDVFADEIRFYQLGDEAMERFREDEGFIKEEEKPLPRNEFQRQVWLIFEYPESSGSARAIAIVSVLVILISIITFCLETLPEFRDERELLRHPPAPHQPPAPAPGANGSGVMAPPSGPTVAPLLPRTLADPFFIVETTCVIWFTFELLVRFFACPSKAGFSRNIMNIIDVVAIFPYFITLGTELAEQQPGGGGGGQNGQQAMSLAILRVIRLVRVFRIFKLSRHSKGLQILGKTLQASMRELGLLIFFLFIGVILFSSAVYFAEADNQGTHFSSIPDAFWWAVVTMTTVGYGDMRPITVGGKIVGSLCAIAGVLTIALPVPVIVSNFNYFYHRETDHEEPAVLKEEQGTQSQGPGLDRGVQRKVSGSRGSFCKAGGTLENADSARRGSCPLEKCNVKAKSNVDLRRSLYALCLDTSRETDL

Row | Structure (SMILES) | IC50 [1] [nM] | inhibition [1] [%] | further results
1 | COC[C@H]1CCCN1C(=O)C1=C(C)Nc2ccnn2C1c1ccc(Cl)c(Cl)c1 (some centres undefined) | > 1000 | 32 | –
2 | CC1=C(C(=O)N2CCC[C@H]2c2nnn(C)n2)C(c2ccc(Cl)c(Cl)c2)n2nccc2N1 (some centres undefined) | 480 | – | –
3 | CC1=C(C(=O)N2CCCC2c2cccnc2)C(c2ccc(Cl)c(Cl)c2)n2nccc2N1 (centres undefined) | > 1000 | 35 | –
4 | CC1=C(C(=O)N2CCCC2c2ccccn2)C(c2ccc(Cl)c(Cl)c2)n2nccc2N1 (centres undefined) | 660 | – | –
5 | CC1=C(C(=O)N2CCC[C@H]2c2nnc(N)s2)C(c2ccc(Cl)c(Cl)c2)n2nccc2N1 (some centres undefined) | > 1000 | 4 | –
6 | CC1=C(C(=O)N2CCC[C@H]2c2n[nH]c(=O)n2C)C(c2ccc(Cl)c(Cl)c2)n2nccc2N1 (some centres undefined) | > 1000 | 11 | –
7 | CC1=C(C(=O)N2CCCC2c2ccc(F)cc2)C(c2ccc(Cl)c(Cl)c2)n2nccc2N1 (mixture of isomers; 7a) | 2100 | – | –
8 | CC1=C(C(=O)N2CCCC2c2ccc(F)cc2)C(c2ccc(Cl)c(Cl)c2)n2nccc2N1 (mixture of isomers; 7b) | 1800 | – | –
9 | CC1=C(C(=O)N2CCC[C@H]2c2nc(C)no2)C(c2ccc(Cl)c(Cl)c2)n2nccc2N1 (stereo in doubt; 13a) [listing 1 of 2 here] | > 1000 | – | –
10 | CC1=C(C(=O)N2CCC[C@H]2c2nc(C)no2)C(c2ccc(Cl)c(Cl)c2)n2nccc2N1 (stereo in doubt; 13a) [listing 2 of 2 here] | – | 22 | –
11 | CC1=C(C(=O)N2CCC[C@H]2c2nnn[nH]2)C(c2ccc(Cl)c(Cl)c2)n2nccc2N1 (stereo in doubt; 14a) [listing 1 of 2 here] | > 1000 | – | –
12 | CC1=C(C(=O)N2CCC[C@H]2c2nnn[nH]2)C(c2ccc(Cl)c(Cl)c2)n2nccc2N1 (stereo in doubt; 14a) [listing 2 of 2 here] | – | 4 | –
13 | CC1=C(C(=O)N2CCC[C@H]2c2nnn[nH]2)C(c2ccc(Cl)c(Cl)c2)n2nccc2N1 (stereo in doubt; 14b) | – | 8 | –
14 | CC1=C(C(=O)N2CCC[C@H]2c2nnc[nH]2)C(c2ccc(Cl)c(Cl)c2)n2nccc2N1 (stereo in doubt; 17a) [listing 1 of 2 here] | > 1000 | – | –
15 | CC1=C(C(=O)N2CCC[C@H]2c2nnc[nH]2)C(c2ccc(Cl)c(Cl)c2)n2nccc2N1 (stereo in doubt; 17a) [listing 2 of 2 here] | – | 19 | –
16 | CC1=C(C(=O)N2CCC[C@H]2c2nnc[nH]2)C(c2ccc(Cl)c(Cl)c2)n2nccc2N1 (stereo in doubt; 17b) | – | 3 | –
17 | CC1=C(C(=O)N2CCC[C@H]2c2cc(C)no2)C(c2ccc(Cl)c(Cl)c2)n2nccc2N1 (stereo in doubt; 20a) [listing 1 of 2 here] | > 1000 | – | –
18 | CC1=C(C(=O)N2CCC[C@H]2c2cc(C)no2)C(c2ccc(Cl)c(Cl)c2)n2nccc2N1 (stereo in doubt; 20a) [listing 2 of 2 here] | – | 21 | –
19 | CC1=C(C(=O)N2CCC[C@H]2c2cc(C)on2)C(c2ccc(Cl)c(Cl)c2)n2nccc2N1 (stereo in doubt; 21a) [listing 1 of 2 here] | > 1000 | – | –
20 | CC1=C(C(=O)N2CCC[C@H]2c2cc(C)on2)C(c2ccc(Cl)c(Cl)c2)n2nccc2N1 (stereo in doubt; 21a) [listing 2 of 2 here] | – | 38 | –

Further lines, with some results ahead:

Row | IC50 [1] [nM] | inhibition [1] [%] | Structure (SMILES) | further results
21 | 310 | – | CC1=C(C(=O)N2CCCC2c2ccncc2)C(c2ccc(Cl)c(Cl)c2)n2nccc2N1 (centres undefined) | –
22 | 160 | – | CC1=C(C(=O)N2CCC(c3ccc(F)cc3)C2)C(c2ccc(Cl)c(Cl)c2)n2nccc2N1 (centres undefined) | –
23 | 150 | – | COC(=O)[C@@H]1CCCN1C(=O)C1=C(C)Nc2ccnn2C1c1ccc(Cl)c(Cl)c1 (some centres undefined) | –
24 | 150 | – | CC1=C(C(=O)N2CCCC2c2ccccc2)C(c2ccc(Cl)c(Cl)c2)n2nccc2N1 (centres undefined) | –
25 | 300 | – | CC1=C(C(=O)N2CCC[C@H]2c2nc(C)c(C)s2)C(c2ccc(Cl)c(Cl)c2)n2nccc2N1 (some centres undefined) | –
26 | 70 | – | CC1=C(C(=O)N2CCCC2c2ccc(F)cc2)C(c2ccc(Cl)c(Cl)c2)n2nccc2N1 (mixture of isomers; 7) | –
27 | 150 | – | CC1=C(C(=O)N2CCCC2c2ccc(F)cc2)C(c2ccc(Cl)c(Cl)c2)n2nccc2N1 (mixture of isomers; 7c) | –
28 | 160 | – | CC1=C(C(=O)N2CCC[C@H]2c2nc(C)no2)C(c2ccc(Cl)c(Cl)c2)n2nccc2N1 (stereo in doubt; 13b) | –
29 | 110 | – | CC1=C(C(=O)N2CCC[C@H]2c2cc(C)no2)C(c2ccc(Cl)c(Cl)c2)n2nccc2N1 (stereo in doubt; 20b) | –
30 | 90 | – | CC1=C(C(=O)N2CCC[C@H]2c2cc(C)on2)C(c2ccc(Cl)c(Cl)c2)n2nccc2N1 (stereo in doubt; 21b) | –
31 | 50 | – | CC1=C(C(=O)N2CCC[C@H]2c2ccc(F)cc2)[C@@H](c2ccc(Cl)c(Cl)c2)n2nccc2N1 [BMS-394136] | Vd [2]: 2.1 L/kg; fraction unbound [3]: 0.03; bioavailability [4]: 51%; half-life [5]: 0.57 h; clearance [6]: 42 mL/min/kg; Activity (Oryctolagus cuniculus [7]): 0.37%; Activity (Oryctolagus cuniculus [8]): 1.37%; Activity (Oryctolagus cuniculus [9]): 6.95%; Activity (Oryctolagus cuniculus [10]): 0.13%; Vd [11]: 1.6 L/kg; concentration (Oryctolagus cuniculus [12]): 7 µM; clearance [13]: 35 mL/min/kg; half-life [14]: 1.5 h; bioavailability [15]: 37%
